Experimental data: paper PMC4593063 (Bioorganic & medicinal chemistry letters, 2015)

Key:
[1] = 19F NMR hydration study in aqueous solution; assay type: physicochemical; details: pH 7.7, 24 h
[2] = evaporative weight loss at room temperature; assay type: physicochemical; details: open 1 dram vial, fume hood
[3] = tested on: An. gambiae; assay: injection toxicity; assay type: in vivo, Anopheles gambiae; details: injection into mosquito thorax
[4] = biological target: WT AgAChE (Anopheles gambiae, UniProt Q869C3); assay: modified Ellman assay, WT AgAChE inhibition; assay type: biochemical
[5] = biological target: G119S AgAChE (Anopheles gambiae, UniProt Q869C3, G280S); assay type: biochemical; details: 60 min incubation
[6] = tested on: G119S AgAChE; assay type: biochemical, Anopheles gambiae; details: 5g: 60 min incubation; dichlorvos: time not stated
[7] = tested on: susceptible (G3) strain adult An. gambiae; assay: tarsal contact toxicity, WHO treated paper protocol; assay type: in vivo, Anopheles gambiae; details: 40% mortality at 1000 μg/mL vs propoxur LC50 39 μg/mL
[8] = tested on: An. gambiae; assay: fumigation toxicity assay; parameters: species or system Anopheles gambiae; details: in vivo

SMILES | % hydrated (19F NMR) [1] | % mass lost by evaporation ([2]; 1 day) | % mass lost by evaporation ([2]; 6 days) | % mass lost by evaporation ([2]; 12 days) | Injection mortality at 50 ng/insect [3] | further results
CC(C)Cn1cc(C(=O)CF)cn1 [Compound 10i] | < 5% |  |  |  |  | 
CC(C)(C)c1cccc(C(=O)C(F)(F)F)c1 [Compound 5c] | 88% |  |  |  |  | 
COP(=O)(OC)OC=C(Cl)Cl [dichlorvos] |  | 2 ± 1% | 16 ± 1% | 32 ± 1% |  | % mass lost by evaporation ([2]; 28 days): 51 ± 1%
CC(C)Cn1cc(C(=O)C(F)F)cn1 [Compound 9i] | 22% |  |  |  |  | 
CCC(CC)n1cc(C(=O)CF)cn1 [Compound 10g] |  |  |  |  | 21 ± 8% | WT AgAChE IC50 fold higher than that of propoxur ([4]; 10 minute incubation time): roughly 2 fold
CCC(CC)n1cc(C(=O)C(F)F)cn1 [Compound 9g] |  |  |  |  | 65 ± 4% | G119S AgAChE IC50 fold lower than that of dichlorvos [5]: 2 fold; G119S AgAChE IC50 fold lower than that of trifluoromethyl ketone 5g [5]: 13 fold; WT AgAChE inhibition (IC50) as summarised in text ([4]; incubation time not specified): single digit nanomolar
CCC(CC)n1cc(C(=O)C(F)(F)F)cn1 [Compound 5g] | 67% | 9 ± 1% | 33 ± 1% | 68 ± 1% | 83 ± 6% | % mass lost by evaporation ([2]; 28 days): 99 ± 1%; ratio of G119S and WT AgAChE IC50 values [6]: roughly 2,500 fold; tarsal contact toxicity fold lower relative to propoxur [7]: ~ 25 fold; potency at WT AgAChE fold greater than dichlorvos [4]: 100 fold; fumigation toxicity fold less than dichlorvos [8]: > 100 fold
CNC(=O)Oc1ccccc1OC(C)C [propoxur] |  | 0 ±1% | 0 ± 1% | 1 ± 1% |  | Injection LD50 ([3]; 95% confidence interval in parenthesis): 0.24 (0.20–0.34) ng/insect
